In the SangsterLogP compilation one finds logP data, which are given here for 18 molecules.

As for `Clc1ccc(C(COCc2ccc3ccccc3c2)Cn2cncn2)c(Cl)c1` (stereo not drawn), the logP (usually a log measure of how a compound divides between an organic and an aqueous phase) was determined as 4.48.
For `Clc1ccc(C(COCc2ccc(OCc3ccccc3)cc2)Cn2cncn2)c(Cl)c1` (stereo not drawn), the logP stood at 4.46.
The molecule `Clc1ccc(C(COCC=Cc2ccccc2)Cn2cncn2)c(Cl)c1` (stereo not drawn) registered a logP of 4.21.
In the case of `C=CCOCC(Cn1cncn1)c1ccc(Cl)cc1Cl` (stereo not drawn) it was 3.49; in that of `Clc1ccc(COCC(Cn2cncn2)c2ccc(Cl)cc2Cl)c(Cl)c1` (stereo not drawn), 4.71; in that of `Clc1ccc(C(COCc2ccccc2)Cn2cncn2)c(Cl)c1` (stereo not drawn), 3.83.
For `CC(C)(C)c1ccc(COCC(Cn2cncn2)c2ccc(Cl)cc2Cl)cc1` (stereo not drawn) the value was 4.84; for `Clc1ccc(C(COCc2cccc(Oc3ccccc3)c2)Cn2cncn2)c(Cl)c1` (stereo not drawn), 4.58; for `Clc1ccc(C(COCc2ccc(-c3ccccc3)cc2)Cn2cncn2)c(Cl)c1` (stereo not drawn), 4.29.
Consider `C#CCOCC(Cn1cncn1)c1ccc(Cl)cc1Cl` (stereo not drawn), for which the logP turned out to be 2.93.
The molecule `CC(C)=CCOCC(Cn1cncn1)c1ccc(Cl)cc1Cl` (stereo not drawn) displayed a logP of 3.91.
Consider `O=[N+]([O-])c1ccc(COCC(Cn2cncn2)c2ccc(Cl)cc2Cl)cc1` (stereo not drawn), for which the log partition coefficient (logP) turned out to be 3.72.
`N#CCCOCC(Cn1cncn1)c1ccc(Cl)cc1Cl` (stereo not drawn) gave a logP of 0.36.
In turn, `Clc1ccc(C(COCCCc2ccccc2)Cn2cncn2)c(Cl)c1` (stereo not drawn) yielded a log partition coefficient (logP) of 4.77.
`COc1cccc(COCC(Cn2cncn2)c2ccc(Cl)cc2Cl)c1` (stereo not drawn) yielded a logP of 3.85.
Consider `Clc1ccc(C(COCc2cccs2)Cn2cncn2)c(Cl)c1` (stereo not drawn), for which the logP came out at 4.42.
Consider `C=C(Cl)COCC(Cn1cncn1)c1ccc(Cl)cc1Cl` (stereo not drawn), for which the lipophilicity (logP) was found to be 3.7.
For the molecule `C=C(C)COCC(Cn1cncn1)c1ccc(Cl)cc1Cl` (stereo not drawn), the lipophilicity (logP) stood at 3.72.
